The record followed here is patent US20100160369A1, “S1P1 Agonists and Methods of Making And Using” (EXELIXIS, INC., priority 2008, published 2010).

For orientation: EC50 means the concentration needed to bring the measured effect to its halfway point.

Structures are written as SMILES. Structures can show the parent of a compound that is named as a salt.

Test [1] has as its target T1, S1P1 (Homo sapiens, UniProt P21453). The test can be described thus: Tango β-arrestin Recruitment Assay in U2OS cells (Assay 2b). Conditions: Tango β-arrestin Recruitment Assay, read-out: Assay 2b EC50. More on the design: linker with TEV protease (N1a) cleavage site (C). Format: cell-based. The method in brief: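 U2OS cells expressing S1P1 and reporter, serum-starved 48 h, treated with compound (10-point 3-fold series, top 1 μM, 1% DMSO) overnight at 37 °C; β-lactamase substrate added 2 h at room temperature. F460/F530 ratio normalised to 1 μM S1P (100%) and DMSO; EC50 from concentration-response.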
A general note: Arrestin recruitment assays detect the binding of arrestin to an activated receptor.

In test [2] the target is T1, S1P1. The test can be described thus: Tango β-arrestin Recruitment Assay in HEK293 cells (Assay 2a). Format: cell-based. More on the design: linker with TEV protease (N1a) cleavage site (C); host or cells: HEK293, transiently transfected. The conditions noted are these: Tango β-arrestin Recruitment Assay, read-out: Assay 2a EC50. In outline: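 HEK293 cells transiently expressing S1P1 (TEV-cleavable tTA fusion) with β-arrestin2–TEV; compounds up to 10 μM, 10-point 3-fold, 1% DMSO, 30 min then 16–18 h at 37 °C. Luciferase luminescence normalised to 5 μM S1P as 100% and DMSO as background; EC50 from percent-activity curves.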

T1 sequence (P21453 whole entry): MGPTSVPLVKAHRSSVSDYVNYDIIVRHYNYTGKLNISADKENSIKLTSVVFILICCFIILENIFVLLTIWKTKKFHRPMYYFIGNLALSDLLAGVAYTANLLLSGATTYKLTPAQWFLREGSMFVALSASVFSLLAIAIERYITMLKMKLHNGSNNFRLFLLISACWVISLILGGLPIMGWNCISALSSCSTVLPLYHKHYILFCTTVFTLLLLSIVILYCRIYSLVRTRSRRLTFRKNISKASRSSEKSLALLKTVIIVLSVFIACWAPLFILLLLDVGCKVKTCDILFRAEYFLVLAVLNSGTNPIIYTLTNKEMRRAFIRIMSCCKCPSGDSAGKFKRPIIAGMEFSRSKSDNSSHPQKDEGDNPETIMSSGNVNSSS
T1 sequence (P32121 whole entry partner): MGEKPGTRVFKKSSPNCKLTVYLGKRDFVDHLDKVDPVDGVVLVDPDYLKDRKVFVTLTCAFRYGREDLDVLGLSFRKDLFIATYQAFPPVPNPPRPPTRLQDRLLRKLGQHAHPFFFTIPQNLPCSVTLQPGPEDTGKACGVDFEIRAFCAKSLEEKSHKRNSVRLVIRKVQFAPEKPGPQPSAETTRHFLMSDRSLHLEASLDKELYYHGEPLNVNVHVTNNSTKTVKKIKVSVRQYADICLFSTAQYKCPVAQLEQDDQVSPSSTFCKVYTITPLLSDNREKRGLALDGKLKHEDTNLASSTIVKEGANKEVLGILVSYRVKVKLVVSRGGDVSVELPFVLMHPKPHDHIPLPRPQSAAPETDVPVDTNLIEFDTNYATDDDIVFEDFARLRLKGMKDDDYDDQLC

In the case of `CC(=O)COc1cc(Cl)c(-c2noc(-c3cn4cc(C(F)(F)F)cc(Cl)c4n3)n2)cc1Cl` [Example 182], the EC50 at S1P1 [1] and on S1P1 [2] was at most 100 nM in each case.

Take `NC(CO)COc1cc(Cl)c(-c2noc(-c3cn4cc(C(F)(F)F)cc(Cl)c4n3)n2)cc1Cl` (centres unmarked) [Example 303, 2-amino-3-[(2,5-dichloro-4-{5-[8-chloro-6-(trifluoromethyl)imidazo[1,2-a]pyridin-2-yl]-1,2,4-oxadiazol-3-yl}phenyl)oxy]propan-1-ol]: the EC50 at S1P1 [1] and on S1P1 [2] was at most 100 nM throughout.

For `C[C@@H](O)COc1cc(Cl)c(-c2noc(-c3cn4cc(C(F)(F)F)cc(Br)c4n3)n2)cc1Cl` [Example 312, (2R)-1-[(4-{5-[8-bromo-6-(trifluoromethyl)imidazo[1,2-a]pyridin-2-yl]-1,2,4-oxadiazol-3-yl}-2,5-dichlorophenyl)oxy]propan-2-ol], the EC50 on S1P1 [1] and at S1P1 [2] was at most 100 nM each time.

On to `C[C@H](O)COc1cc(Cl)c(-c2noc(-c3cn4cc(C(F)(F)F)cc(Br)c4n3)n2)cc1Cl` [Example 313, (2S)-1-[(4-{5-[8-bromo-6-(trifluoromethyl)imidazo[1,2-a]pyridin-2-yl]-1,2,4-oxadiazol-3-yl}-2,5-dichlorophenyl)oxy]propan-2-ol], for which the EC50 on S1P1 [1] and at S1P1 [2] was at most 100 nM throughout.

In the case of `OC[C@@H](O)COc1cc(Cl)c(-c2noc(-c3cn4cc(C(F)(F)F)cc(Br)c4n3)n2)cc1Cl` [Example 317, (2R)-3-[(4-{5-[8-bromo-6-(trifluoromethyl)imidazo[1,2-a]pyridin-2-yl]-1,2,4-oxadiazol-3-yl}-2,5-dichlorophenyl)oxy]propane-1,2-diol], the EC50 at S1P1 [1] and on S1P1 [2] was at most 100 nM in each case.

On to `NC(CO)COc1cc(Cl)c(-c2nnc(-c3cn4cc(C(F)(F)F)cc(Cl)c4n3)s2)cc1F` (centres unmarked) [Example 321, 2-amino-3-[(5-chloro-4-{5-[8-chloro-6-(trifluoromethyl)imidazo[1,2-a]pyridin-2-yl]-1,3,4-thiadiazol-2-yl}-2-fluorophenyl)oxy]propan-1-ol], for which the EC50 on S1P1 [1] and at S1P1 [2] was at most 100 nM each time.

Take `O=P(O)(O)OC[C@H](O)COc1cc(Cl)c(-c2noc(-c3cn4cc(C(F)(F)F)cc(Cl)c4n3)n2)cc1Cl` [Example 322, (2R)-3-[(2,5-dichloro-4-{5-[8-chloro-6-(trifluoromethyl)imidazo[1,2-a]pyridin-2-yl]-1,2,4-oxadiazol-3-yl}phenyl)oxy]-2-hydroxypropyl dihydrogen phosphate]: the EC50 at S1P1 [1] and at S1P1 [2] was at most 100 nM in each case.

On to `C[C@H](COc1cc(Cl)c(-c2noc(-c3cn4cc(C(F)(F)F)cc(Br)c4n3)n2)cc1Cl)OP(=O)(O)O` [Example 324, (1R)-2-[(4-{5-[8-bromo-6-(trifluoromethyl)imidazo[1,2-a]pyridin-2-yl]-1,2,4-oxadiazol-3-yl}-2,5-dichlorophenyl)oxy]-1-methylethyl dihydrogen phosphate], for which the EC50 on S1P1 [1] and at S1P1 [2] was at most 100 nM throughout.

As to `C[C@@H](COc1cc(Cl)c(-c2noc(-c3cn4cc(C(F)(F)F)cc(Cl)c4n3)n2)cc1Cl)OS(=O)(=O)O` [Example 326, (1S)-2-[(2,5-dichloro-4-{5-[8-chloro-6-(trifluoromethyl)imidazo[1,2-a]pyridin-2-yl]-1,2,4-oxadiazol-3-yl}phenyl)oxy]-1-methylethyl hydrogen sulfate], the EC50 on S1P1 [1] and at S1P1 [2] was at most 100 nM in each case.

In the case of `CC(O)(CO)COc1cc(Cl)c(-c2noc(-c3cn4cc(C(F)(F)F)cc(Cl)c4n3)n2)cc1Cl` (centres unmarked) [Example 330, 3-[(2,5-dichloro-4-{5-[8-chloro-6-(trifluoromethyl)imidazo[1,2-a]pyridin-2-yl]-1,2,4-oxadiazol-3-yl}phenyl)oxy]-2-methylpropane-1,2-diol], the EC50 at S1P1 [1] and on S1P1 [2] was at most 100 nM each time.
